According to ChEMBL document CHEMBL1275409, “Antimicrobial-resistant pathogens in intensive care units in Canada: results of the Canadian National Intensive Care Unit (CAN-ICU) study, 2005-2006” (2008):

Assays:
Type in all cases: functional
[1] = tested on: Enterococcus sp.; assay: Antimicrobial activity against vancomycin-resistant Enterococcus sp. isolated from ICU patient urine assessed as resistant isolates by broth microdilution method
[2] = tested on: Staphylococcus epidermidis; assay: Antimicrobial activity against methicillin-susceptible Staphylococcus epidermidis assessed as resistant isolates by broth microdilution method
[3] = tested on: Staphylococcus epidermidis; assay: Antimicrobial activity against methicillin-susceptible Staphylococcus epidermidis isolated from ICU patient urine assessed as resistant isolates by broth microdilution method
[4] = tested on: Staphylococcus epidermidis; assay: Antimicrobial activity against methicillin-resistant Staphylococcus epidermidis isolated from ICU patient urine assessed as resistant isolates by broth microdilution method
[5] = tested on: Staphylococcus aureus; assay: Antimicrobial activity against methicillin-susceptible Staphylococcus aureus assessed as resistant isolates by broth microdilution method
[6] = tested on: Staphylococcus aureus; assay: Antimicrobial activity against methicillin-resistant Staphylococcus aureus isolated from ICU patient urine assessed as resistant isolates by broth microdilution method
[7] = tested on: Streptococcus pneumoniae; assay: Antimicrobial activity against penicillin-resistant Streptococcus pneumoniae isolated from ICU patient blood assessed as resistant isolates by broth microdilution method
[8] = tested on: Staphylococcus aureus; assay: Antimicrobial activity against methicillin-resistant Staphylococcus aureus isolated from ICU patient respiratory tract assessed as resistant isolates by broth microdilution method
[9] = tested on: Staphylococcus epidermidis; assay: Antimicrobial activity against methicillin-susceptible Staphylococcus epidermidis isolated from ICU patient blood assessed as resistant isolates by broth microdilution method
[10] = tested on: Staphylococcus aureus; assay: Antimicrobial activity against methicillin-resistant Staphylococcus aureus assessed as resistant isolates by broth microdilution method
[11] = tested on: Staphylococcus aureus; assay: Antimicrobial activity against methicillin-susceptible Staphylococcus aureus isolated from ICU patient urine assessed as resistant isolates by broth microdilution method
[12] = tested on: Streptococcus pneumoniae; assay: Antimicrobial activity against penicillin-resistant Streptococcus pneumoniae isolated from ICU patient respiratory tract assessed as resistant isolates by broth microdilution method
[13] = tested on: Staphylococcus aureus; assay: Antimicrobial activity against methicillin-resistant Staphylococcus aureus isolated from ICU patient wound assessed as resistant isolates by broth microdilution method
[14] = tested on: Enterococcus sp.; assay: Antimicrobial activity against vancomycin-resistant Enterococcus sp. isolated from ICU patient respiratory tract assessed as resistant isolates by broth microdilution method
[15] = tested on: Staphylococcus epidermidis; assay: Antimicrobial activity against methicillin-susceptible Staphylococcus epidermidis isolated from ICU patient respiratory tract assessed as resistant isolates by broth microdilution method
[16] = tested on: Staphylococcus aureus; assay: Antimicrobial activity against methicillin-susceptible Staphylococcus aureus isolated from ICU patient wound assessed as resistant isolates by broth microdilution method
[17] = tested on: Staphylococcus aureus; assay: Antimicrobial activity against methicillin-susceptible Staphylococcus aureus isolated from ICU patient blood assessed as resistant isolates by broth microdilution method
[18] = tested on: Staphylococcus epidermidis; assay: Antimicrobial activity against methicillin-resistant Staphylococcus epidermidis isolated from ICU patient wound assessed as resistant isolates by broth microdilution method
[19] = tested on: Staphylococcus epidermidis; assay: Antimicrobial activity against methicillin-susceptible Staphylococcus epidermidis isolated from ICU patient wound assessed as resistant isolates by broth microdilution method
[20] = tested on: Streptococcus pneumoniae; assay: Antimicrobial activity against penicillin-resistant Streptococcus pneumoniae isolated from ICU patient wound assessed as resistant isolates by broth microdilution method
[21] = tested on: Streptococcus pneumoniae; assay: Antimicrobial activity against penicillin-resistant Streptococcus pneumoniae assessed as resistant isolates by broth microdilution method
[22] = tested on: Staphylococcus aureus; assay: Antimicrobial activity against methicillin-resistant Staphylococcus aureus isolated from ICU patient blood assessed as resistant isolates by broth microdilution method
[23] = tested on: Staphylococcus aureus; assay: Antimicrobial activity against methicillin-susceptible Staphylococcus aureus isolated from ICU patient respiratory tract assessed as resistant isolates by broth microdilution method
[24] = tested on: Enterococcus sp.; assay: Antimicrobial activity against vancomycin-resistant Enterococcus sp. assessed as resistant isolates by broth microdilution method
[25] = tested on: Enterococcus sp.; assay: Antimicrobial activity against vancomycin-resistant Enterococcus sp. isolated from ICU patient wound assessed as resistant isolates by broth microdilution method
[26] = tested on: Enterococcus sp.; assay: Antimicrobial activity against vancomycin-resistant Enterococcus sp. isolated from ICU patient blood assessed as resistant isolates by broth microdilution method
[27] = tested on: Staphylococcus epidermidis; assay: Antimicrobial activity against methicillin-resistant Staphylococcus epidermidis isolated from ICU patient blood assessed as resistant isolates by broth microdilution method
[28] = tested on: Staphylococcus epidermidis; assay: Antimicrobial activity against methicillin-resistant Staphylococcus epidermidis assessed as resistant isolates by broth microdilution method

Compound: CN[C@H](CC(C)C)C(=O)N[C@H]1C(=O)N[C@@H](CC(N)=O)C(=O)N[C@H]2C(=O)N[C@H]3C(=O)N[C@H](C(=O)N[C@H](C(=O)O)c4cc(O)cc(O)c4-c4cc3ccc4O)[C@H](O)c3ccc(c(Cl)c3)Oc3cc2cc(c3O[C@@H]2O[C@H](CO)[C@@H](O)[C@H](O)[C@H]2O[C@H]2C[C@](C)(N)[C@H](O)[C@H](C)O2)Oc2ccc(cc2Cl)[C@H]1O [VANCOMYCIN]
- Activity [1]: 4%
- Activity [2]: 0%
- Activity [3]: 0%
- Activity [4]: 0%
- Activity [5]: 0%
- Activity [6]: 0%
- Activity [7]: 0%
- Activity [8]: 0%
- Activity [9]: 0%
- Activity [10]: 0%
- Activity [11]: 0%
- Activity [12]: 0%
- Activity [13]: 0%
- Activity [14]: 3.3%
- Activity [15]: 0%
- Activity [16]: 0%
- Activity [17]: 0%
- Activity [18]: 0%
- Activity [19]: 0%
- Activity [20]: 0%
- Activity [21]: 0%
- Activity [22]: 0%
- Activity [23]: 0%
- Activity [24]: 6.8%
- Activity [25]: 12.5%
- Activity [26]: 5.4%
- Activity [27]: 0%
- Activity [28]: 0%
